# Assay results: patent US8835631B2, “Therapeutic agent for cerebral infarction” (Mitsubishi Tanabe Pharma Corporation, priority 2007, dated 2014)
# Experiments:
# TNF-α [1] = experiment: Intracerebral TNF-α production in rat middle cerebral artery occlusion-reperfusion model; assay type: in vivo, male Wistar rats; conditions: 10 mg/kg orally 30 min after occlusion; brain isolated 12 hr after occlusion; ELISA; FIG. 1
# Description: (§1) The middle cerebral artery of male Wistar rats (Japan Laboratory animals Inc.) was obstructed with suture (silicon-coated nylon thread), and test compound A (10 mg/kg) dissolved in saline was intravenously administered in 30 min after occlusion, and middle cerebral artery was reperfused in 60 min after administration. In only the rats used for TNF-α measurement, test compound A was administered orally. The brain was isolated at 12 hr after the occlusion (see Koizumi, J. et al., Jpn. J. Stroke, 8, 1-8, 1986). The brain tissue was homogenized, the centrifuged supernatant was collected and cytokine and chemokine were measured by ELISA. Intracerebral TNF-α, IL-1β and IL-6 were measured using an Immunoassay Kit (BIOSOURCE) according to the manufactures' protocol. MCP-1 was measured using an MCP-1 Instant ELISA (Bener MedSystems) according to the manufactures' protocol.
# IL-6 [2] = experiment: Intracerebral IL-6 production in rat middle cerebral artery occlusion-reperfusion model; assay type: in vivo, male Wistar rats; conditions: 10 mg/kg intravenously 30 min after occlusion; brain isolated 12 hr after occlusion; ELISA; FIG. 3
# Description: as §1
# IL-6 [3] = experiment: IL-6 production in LPS-administered mouse; assay type: in vivo, male BALB/c mouse; conditions: for IL-6 production (%): 10 mg/kg orally 30 min before LPS 500 μg/kg i.p., plasma 90 min after LPS, ratio to group without test compound
# Description: (§2) LPS (lipopolysaccharide, derived from E. coli 0111:B4, Sigma, 500 μg/kg) was intraperitoneally administered to male BALB/c mouse (Charles River Laboratories Japan). After 90 min after LPS administration, the blood was taken under anesthesia, and centrifuged to collect plasma. TNF-α was measured using an Immunoassay Kit (R&D Systems) and IL-10, MCP-1 and IL-6 were measured using an Immunoassay Kit (BIOSOURCE). Test compound A, the compound synthesized in Example 3 (test compound B) and the compound synthesized in Example 7 (test compound C) were dissolved in saline, and the mixture was orally administered at 10 mg/kg 30 min before LPS administration. As shown in the Tables, the effect of each test compound on respective […] cytokines was calculated as the ratio of each cytokine concentration in the blood of the group administered with each test compound to each cytokine concentration in the blood of the group free of administration of each test compound.
# MCP-1 [4] = experiment: MCP-1 production in LPS-administered mouse; assay type: in vivo, male BALB/c mouse; conditions: for MCP-1 production (%): 10 mg/kg orally 30 min before LPS 500 μg/kg i.p., plasma 90 min after LPS, ratio to group without test compound
# Description: as §2
# [5] = Evaluation of intracerebral transitivity in rat; assay type: in vivo, SD(IGS) rats; conditions: for Kp value (ratio of plasma concentration and intracerebral concentration): 30 mg/kg orally
# Description: The test compound A dissolved in 0.5% aqueous HPMC solution was orally administered at 30 mg/kg, and test compound B and test compound C dissolved in 0.5% aqueous HPMC solution were each orally administered at 3 mg/kg to SD(IGS) rats (Charles River Laboratories Japan). At 1 hr and 4 hr after the administration of the test compound, blood samples were collected, and the brain (cerebral•cerebellum) was isolated. The plasma concentration and intracerebral concentration of each test compound were measured, and the ratio (Kp value) thereof was calculated, based on which the intracerebral transitivity was evaluated.
# IL-10 = IL-10 production in LPS-administered mouse; assay type: in vivo, male BALB/c mouse
# Description: as §2
# TNF-α [6] = experiment: TNF-α production in LPS-administered mouse; assay type: in vivo, male BALB/c mouse
# Description: as §2
# [7] = system: monkey middle cerebral artery permanent occlusion model; experiment: Brain injury volume and neurological deficit in monkey middle cerebral artery permanent occlusion model; assay type: in vivo, Macaca fascicularis; conditions: for spread of the cerebral infarction region (brain injury volume, MRI FLAIR): 5 mg/kg orally twice a day, FIG. 5
# Description: In monkey middle cerebral artery permanent occlusion model, the brain injury volume was measured by MR^1 (FLAIR method) one day and seven days after occlusion. Test compound A (5 mg/kg) dissolved in 0.5% tragacanth was repeatedly administered orally twice a day for 14 days. As for neurological score, the neurological function was evaluated by scoring the consciousness, perception, motility and muscular commands.
# The middle cerebral artery permanent occlusion was conducted according to the method of Furuichi et al. (Furuichi, Y et al., J. Cereb. Blood Flow Metab., 23, 1183-1194, 2003), which is specifically as follows. Macaca fascicularis fasted in advance for 12 hr or longer was anesthetized by intramuscular administration of ketamine hydrochloride (10 mg/kg), anesthetized by intravenous administration of pentobarbital sodium (25 mg/kg) and fixed on an operating table. About 5 mm holes were made near foramen ovale and orbital fissure with a dental drill, dura mater and arachnoid mater were incised, and the middle cerebral artery trunk near the internal carotid artery bifurcation area was exposed. The middle cerebral artery trunk near the internal carotid artery bifurcation area was obstructed by electric coagulation to form cerebral infarction.
# Test compound A was orally administered within 1 hr and 6 hr after middle cerebral artery occlusion and within 30 min after feeding in the morning and evening (twice a day) from the next day for 14 days.
# [8] = system: rat middle cerebral artery occlusion-reperfusion model; experiment: Cerebral infarction volume in rat middle cerebral artery occlusion-reperfusion model; assay type: in vivo, male Wistar rats; conditions: 10 mg/kg intravenously 30 min after occlusion, reperfusion 90 min after occlusion, brain isolated 24 hr later, TTC stain; FIG. 7
# Description: The middle cerebral artery of male Wistar rats (Japan Laboratory Animals Inc.) was obstructed with suture (silicon-coated nylon thread), and saline (Vehicle, n=7), test compound A (10 mg/kg, n=6) dissolved in saline, test compound B ([…], n=7) dissolved in saline, and test compound C (10 mg/kg, n=7) dissolved in saline were each intravenously administered in 30 min after occlusion and the artery was reperfused in 90 min after occlusion. The brain was isolated 24 hr later. A 2 mm brain strip was prepared, and the strip was stained with PBS (pH 7.4, 37° C.) containing 1% 2,3,5-triphenyltetrazolium chloride (TTC, Wako Pure Chemical Industries, Ltd.). The cerebral infarction area was measured by image analysis and the cerebral infarction volume was calculated.
# MCP-1 [9] = experiment: Intracerebral MCP-1 production in rat middle cerebral artery occlusion-reperfusion model; assay type: in vivo, male Wistar rats; conditions: 10 mg/kg intravenously 30 min after occlusion; brain isolated 12 hr after occlusion; ELISA; FIG. 4
# Description: as §1
# IL-1β = experiment: Intracerebral IL-1β production in rat middle cerebral artery occlusion-reperfusion model; assay type: in vivo, male Wistar rats; conditions: 10 mg/kg intravenously 30 min after occlusion; brain isolated 12 hr after occlusion; ELISA; FIG. 2
# Description: as §1
# [10] = 10 mg/kg orally 30 min before LPS
# [11] = Table 1, 10 mg/kg orally 30 min before LPS 500 μg/kg i.p., plasma 90 min after LPS, ratio to group without test compound
smiles,measurement,setting,value
"CC(=O)NC1(c2ccc(CN3CCN(c4ncccn4)CC3)cc2)CC1.Cl [test compound A, N-(1-(4-((4-(pyrimidin-2-yl)piperazin-1-yl)methyl)phenyl)cyclopropyl)acetamide•hydrochloride]",intracerebral TNF-α concentration increased by transient cerebral ischemia,TNF-α [1],suppressed
same,intracerebral IL-6 concentration increased by transient cerebral ischemia,IL-6 [2],suppressed
same,IL-6 production in LPS model mouse (in words),IL-6 [3]; [10],suppressed
same,IL-6 production (%),IL-6 [3]; Table 2,74.4%
same,IL-6 production (%),IL-6 [3]; Table 3,78.4%
same,MCP-1 production in LPS model mouse (in words),MCP-1 [4]; [10],suppressed
same,MCP-1 production (%),MCP-1 [4]; Table 2,61.7%
same,MCP-1 production (%),MCP-1 [4]; Table 3,72.2%
same,Kp value (ratio of plasma concentration and intracerebral concentration),[5]; 1 hr after administration,0.5
same,Kp value (ratio of plasma concentration and intracerebral concentration),[5]; 4 hr after administration,0.5
same,intracerebral transitivity (in words),"[5]; orally, test compound A 30 mg/kg, test compounds B and C 3 mg/kg",intracerebrally transferred
same,IL-10 in LPS model mouse (in words),IL-10; [10],increased
same,IL-10 production (%),IL-10; [11],397.1%
same,TNF-α production in LPS model mouse (in words),TNF-α [6]; [10],suppressed
same,TNF-α production (%),TNF-α [6]; [11],43.5%
same,neurological deficit (neurological function score),"[7]; 5 mg/kg orally twice a day for 14 days, FIG. 6",neurological deficit-ameliorating effect
same,"spread of the cerebral infarction region (brain injury volume, MRI FLAIR)",[7]; 1 day after occlusion,suppressive action
same,"spread of the cerebral infarction region (brain injury volume, MRI FLAIR)",[7]; 7 days after occlusion,suppressive action
same,suppression of cerebral infarction volume,[8],42.5%
same,intracerebral MCP-1 concentration increased by transient cerebral ischemia,MCP-1 [9],suppressed
same,intracerebral IL-1β concentration increased by transient cerebral ischemia,IL-1β,suppressed
